Test results reported in article PMC9865645, “The Impact of N^ε-Acryloyllysine Piperazides on the Conformational Dynamics of Transglutaminase 2” (International Journal of Molecular Sciences, 2023).

Biological target: T1, hTGase 2 (Homo sapiens, UniProt P21980)
T1 construct: purchased Zedira (Darmstadt, Germany) T022, lot 0716a
T1 sequence (P21980 1-687): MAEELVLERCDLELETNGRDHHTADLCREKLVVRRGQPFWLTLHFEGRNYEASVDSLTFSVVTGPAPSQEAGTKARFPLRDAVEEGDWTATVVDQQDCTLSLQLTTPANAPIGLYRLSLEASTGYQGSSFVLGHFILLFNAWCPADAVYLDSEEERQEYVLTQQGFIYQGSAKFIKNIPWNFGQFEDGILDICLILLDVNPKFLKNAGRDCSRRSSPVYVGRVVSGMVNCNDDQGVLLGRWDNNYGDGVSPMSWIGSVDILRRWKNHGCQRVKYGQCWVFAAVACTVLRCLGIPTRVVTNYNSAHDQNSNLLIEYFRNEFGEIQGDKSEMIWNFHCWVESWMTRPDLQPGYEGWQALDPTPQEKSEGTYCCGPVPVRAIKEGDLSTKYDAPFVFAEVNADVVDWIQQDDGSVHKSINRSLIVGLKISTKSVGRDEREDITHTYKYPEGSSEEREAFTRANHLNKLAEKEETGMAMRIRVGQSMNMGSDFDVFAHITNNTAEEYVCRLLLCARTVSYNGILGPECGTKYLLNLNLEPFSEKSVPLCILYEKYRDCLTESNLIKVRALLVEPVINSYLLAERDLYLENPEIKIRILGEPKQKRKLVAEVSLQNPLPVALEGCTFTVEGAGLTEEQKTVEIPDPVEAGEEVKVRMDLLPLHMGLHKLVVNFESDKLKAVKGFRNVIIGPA
Assay: switchSENSE dynamic mode: upward motion (relative inverse slope, friction) of hTGase 2-dsDNA lever
Conditions: GTPγS 20 nM or Ca^2+ 1 mM; non-directed and His-tag-directed labeling
Description: Prior to the measurement of the switching kinetics of the differently conjugated hTGase 2, a complementary ssDNA without the enzyme (500 nM) was hybridized to the single-stranded capture strands on the chip electrodes to obtain the reference kinetics of the dsDNA lever. In addition, to determine the impact of CaCl2 and DMSO on the movement of the bare dsDNA lever, and thus on reference kinetics, its switching behavior was investigated in TE40, TE40 + 1 mM CaCl2, TE40 + 1 mM CaCl2 + 1% DMSO or TE40 + 1 mM CaCl2 + 0.1% DMSO.
Then, the dehybridization of the reference lever occurred during a regeneration step followed by the hybridization with an ssDNA-hTGase 2 conjugate (500 nM). Thereafter, the switching kinetics was recorded. […]
The impact on the hydrodynamic drag of the hTGase 2-functionalized lever was investigated under identical conditions for the three irreversible inhibitors 1–3: At first, the switching kinetics of the dsDNA lever and the hTGase 2-dsDNA conjugates were recorded. Secondly, the switching kinetics of the hTGase 2-dsDNA conjugates during and after Ca^2+ exposure were recorded using TE40 + 1 mM CaCl2 or TE40, respectively. […] In this process, the hydrodynamic drag was analyzed during the exposure to 10 µM inhibitor (for 6 min) dissolved in TE40 + 1 mM CaCl2 + 0.1% DMSO and to TE40 afterward. […]

Nc1nc2c(ncn2[C@@H]2O[C@H](COP(=O)(O)OP(=O)(O)OP(O)(O)=S)[C@@H](O)[C@H]2O)c(=O)[nH]1 [GTPγS]
relative inverse slope of hTGase 2-dsDNA lever versus pure buffer without effector: significantly smaller
